Assay results from PMC6151383 (Molecules : A Journal of Synthetic Chemistry and Natural …, 2017).
≈ marks a conversion by molar mass, not a printed value. Read-outs that look alike come from different tables or passages of the source.

Tests used:
[1] = system: Aspergillus fumigatus 231; experiment: Antifungal microdilution broth MIC, A. fumigatus; type: cell-based; details: Aspergillus fumigatus, 231; 48 h incubation; read-out: MIC AF 48 h
[2] = system: Escherichia coli CCM 4517; experiment: Antibacterial microdilution broth MIC, E. coli; type: cell-based; details: Escherichia coli, CCM4517; 48 h incubation; read-out: MIC EC 48 h
[3] = system: Staphylococcus epidermidis H 6966/08; experiment: Antibacterial microdilution broth MIC, S. epidermidis; type: cell-based; details: Staphylococcus epidermidis
[4] = system: Trichophyton interdigitale 445; experiment: Antifungal microdilution broth MIC, T. interdigitale; type: cell-based
[5] = system: ESBL-positive Klebsiella pneumoniae J 14368/08
Candida krusei E28 = experiment: Antifungal microdilution broth MIC, C. krusei; type: cell-based; details: Pichia kudriavzevii
[6] = system: Lichtheimia corymbifera 272; experiment: Antifungal microdilution broth MIC, L. corymbifera; type: cell-based; details: Lichtheimia corymbifera, 272; 48 h incubation; read-out: MIC LC 48 h
[7] = system: Staphylococcus aureus CCM 4516/08; experiment: Antibacterial microdilution broth MIC, S. aureus; type: cell-based; details: Staphylococcus aureus, CCM4516; 48 h incubation; read-out: MIC SA 48 h
[8] = system: Klebsiella pneumoniae D 11750/08
M. kansasii 6509/96 = experiment: In vitro antimycobacterial MIC, M. kansasii clinical isolate; type: cell-based; details: Mycobacterium kansasii
[9] = system: Candida albicans ATCC 44859; experiment: Antifungal microdilution broth MIC, C. albicans; type: cell-based
[10] = system: Mycobacterium tuberculosis 331/88 (H37Rv); experiment: In vitro antimycobacterial MIC, M. tuberculosis; type: cell-based
[11] = system: Mycobacterium avium 330/88; experiment: In vitro antimycobacterial MIC, M. avium; type: cell-based
Candida tropicalis 156 = experiment: Antifungal microdilution broth MIC, C. tropicalis; type: cell-based
Candida glabrata 20/I = experiment: Antifungal microdilution broth MIC, C. glabrata; type: cell-based; details: Nakaseomyces glabratus
[12] = system: Pseudomonas aeruginosa CCM 1961; experiment: Antibacterial microdilution broth MIC, P. aeruginosa; type: cell-based; details: Pseudomonas aeruginosa, CCM1961; 48 h incubation; read-out: MIC PA 48 h
Trichosporon asahii 1188 = experiment: Antifungal microdilution broth MIC, T. asahii; type: cell-based
[13] = system: Enterococcus faecalis J 14365/08; experiment: Antibacterial microdilution broth MIC, E. faecalis; type: cell-based; details: Enterococcus faecalis, J14365/08; 48 h incubation; read-out: MIC EF 48 h
[14] = system: Mycobacterium kansasii 235/80; experiment: In vitro antimycobacterial MIC, M. kansasii 235/80; type: cell-based
[15] = H6966/08, 48 h incubation, read-out: MIC SE 48 h
[16] = E28, 48 h incubation, read-out: MIC CK 48 h
[17] = 6509/96, 168 h, 7 d incubation, read-out: MIC M. kansasii 6509/96 7 d
[18] = 6509/96, 336 h, 14 d incubation, read-out: MIC M. kansasii 6509/96 14 d
[19] = 6509/96, 504 h, 21 d incubation, read-out: MIC M. kansasii 6509/96 21 d
[20] = ATCC44859, 24 h, read-out: MIC CA 24 h
[21] = ATCC44859, 48 h, read-out: MIC CA 48 h
[22] = 336 h, 14 d incubation, read-out: MIC Mtb. 331/88 14 d
[23] = 504 h, 21 d incubation, read-out: MIC Mtb. 331/88 21 d
[24] = 330/88, 336 h, 14 d incubation, read-out: MIC M. avium 330/88 14 d
[25] = 330/88, 504 h, 21 d incubation, read-out: MIC M. avium 330/88 21 d
[26] = Candida tropicalis, 156, 48 h incubation, read-out: MIC CT 48 h
[27] = Trichosporon asahii, 1188, 24 h, read-out: MIC TA 24 h
[28] = Trichosporon asahii, 1188, 48 h, read-out: MIC TA 48 h
[29] = 235/80, 168 h, 7 d incubation, read-out: MIC M. kansasii 235/80 7 d
[30] = 235/80, 336 h, 14 d incubation, read-out: MIC M. kansasii 235/80 14 d
[31] = 235/80, 504 h, 21 d incubation, read-out: MIC M. kansasii 235/80 21 d
[32] = Trichophyton interdigitale, 445, 72 h incubation, read-out: MIC TI 72 h
[33] = Trichophyton interdigitale, 445, 120 h incubation, read-out: MIC TI 120 h

For `O=S(=O)(Nc1ncccn1)c1ccc(N=Cc2cc(Br)ccc2O)cc1` [Compound 2d, 4-[(5-Bromo-2-hydroxybenzylidene)amino]-N-(pyrimidin-2-yl)benzenesulfonamide], the MIC [1] was 250 µM (≈ 108 µg/mL), the MIC [2] was 500 µM (≈ 217 µg/mL) and the MIC [3, 15] was 250 µM (≈ 108 µg/mL). The MIC ([4]; Trichophyton interdigitale, 445, 72 h, read-out: MIC TI 72 h) was 62.5 µM (≈ 27.1 µg/mL), the MIC ([4]; Trichophyton interdigitale, 445, 120 h, read-out: MIC TI 120 h) was 62.5 µM (≈ 27.1 µg/mL) and the “MIC KP-E 24 h” value [5] was 500 µM (≈ 217 µg/mL). The “MIC KP-E 48 h” value [5] was 500 µM (≈ 217 µg/mL), the MIC (Candida krusei E28; [16]) was 250 µM (≈ 108 µg/mL) and the MIC [6] was greater than 500 µM. The MIC [7] was 500 µM (≈ 217 µg/mL), the “MIC KP 24 h” value [8] was 500 µM (≈ 217 µg/mL) and the “MIC KP 48 h” value [8] was 500 µM (≈ 217 µg/mL). The MIC (M. kansasii 6509/96; [17]) was 32 µM (≈ 13.9 µg/mL), the MIC (M. kansasii 6509/96; [18]) was 32 µM (≈ 13.9 µg/mL) and the MIC (M. kansasii 6509/96; [19]) was 62.5 µM (≈ 27.1 µg/mL). The MIC [9, 20] was 125 µM (≈ 54.2 µg/mL), the MIC [9, 21] was 125 µM (≈ 54.2 µg/mL) and the MIC [10, 22] was 16 µM (≈ 6.93 µg/mL). It also gave an MIC [10, 23] of 32 µM (≈ 13.9 µg/mL), an MIC [11, 24] of 125 µM (≈ 54.2 µg/mL) and an MIC [11, 25] of 125 µM (≈ 54.2 µg/mL). The MIC (Candida tropicalis 156; [26]) was 250 µM (≈ 108 µg/mL), the MIC (Candida glabrata 20/I; 24 h, read-out: MIC CG 24 h) was 62.5 µM (≈ 27.1 µg/mL) and the MIC (Candida glabrata 20/I; 48 h, read-out: MIC CG 48 h) was 62.5 µM (≈ 27.1 µg/mL). The MIC [12] was 500 µM (≈ 217 µg/mL), the MIC (Trichosporon asahii 1188; [27]) was 62.5 µM (≈ 27.1 µg/mL) and the MIC (Trichosporon asahii 1188; [28]) was 62.5 µM (≈ 27.1 µg/mL). For the same compound, the MIC [13] was greater than 500 µM, the MIC [14, 29] was 32 µM (≈ 13.9 µg/mL) and the MIC [14, 30] was 62.5 µM (≈ 27.1 µg/mL). The MIC [14, 31] was 62.5 µM (≈ 27.1 µg/mL).
Work on `O=S(=O)(Nc1ncccn1)c1ccc(N=Cc2cc(I)ccc2O)cc1` [Compound 2e, 4-[(2-Hydroxy-5-iodobenzylidene)amino]-N-(pyrimidin-2-yl)benzenesulfonamide] yielded an MIC [1] of 250 µM (≈ 120 µg/mL), an MIC [2] of 250 µM (≈ 120 µg/mL) and an MIC ([3]; H6966/08, 24 h, read-out: MIC SE 24 h) of 62.5 µM (≈ 30 µg/mL). The MIC ([3]; H6966/08, 48 h, read-out: MIC SE 48 h) was 125 µM (≈ 60 µg/mL), the MIC [4, 32] was 31.2 µM (≈ 15 µg/mL) and the MIC [4, 33] was 31.2 µM (≈ 15 µg/mL). For the same compound, the “MIC KP-E 24 h” value [5] was 500 µM (≈ 240 µg/mL), the “MIC KP-E 48 h” value [5] was 500 µM (≈ 240 µg/mL) and the MIC (Candida krusei E28; E28, 24 h, read-out: MIC CK 24 h) was 62.5 µM (≈ 30 µg/mL). The MIC (Candida krusei E28; E28, 48 h, read-out: MIC CK 48 h) was 125 µM (≈ 60 µg/mL), the MIC [6] was greater than 500 µM and the MIC [7] was 250 µM (≈ 120 µg/mL). For the same compound, the “MIC KP 24 h” value [8] was 500 µM (≈ 240 µg/mL), the “MIC KP 48 h” value [8] was 500 µM (≈ 240 µg/mL) and the MIC (M. kansasii 6509/96; [17]) was 32 µM (≈ 15.4 µg/mL). It also gave an MIC (M. kansasii 6509/96; [18]) of 32 µM (≈ 15.4 µg/mL), an MIC (M. kansasii 6509/96; [19]) of 62.5 µM (≈ 30 µg/mL) and an MIC [9, 20] of 62.5 µM (≈ 30 µg/mL). For the same compound, the MIC [9, 21] was 125 µM (≈ 60 µg/mL), the MIC [10, 22] was 62.5 µM (≈ 30 µg/mL) and the MIC [10, 23] was 125 µM (≈ 60 µg/mL). For the same compound, the MIC [11, 24] was 125 µM (≈ 60 µg/mL), the MIC [11, 25] was 250 µM (≈ 120 µg/mL) and the MIC (Candida tropicalis 156; Candida tropicalis, 156, 24 h, read-out: MIC CT 24 h) was 125 µM (≈ 60 µg/mL). The MIC (Candida tropicalis 156; Candida tropicalis, 156, 48 h, read-out: MIC CT 48 h) was 125 µM (≈ 60 µg/mL), the MIC (Candida glabrata 20/I; 24 h, read-out: MIC CG 24 h) was 62.5 µM (≈ 30 µg/mL) and the MIC (Candida glabrata 20/I; 48 h, read-out: MIC CG 48 h) was 62.5 µM (≈ 30 µg/mL). For the same compound, the MIC [12] was 500 µM (≈ 240 µg/mL), the MIC (Trichosporon asahii 1188; [27]) was 125 µM (≈ 60 µg/mL) and the MIC (Trichosporon asahii 1188; [28]) was 125 µM (≈ 60 µg/mL). It also gave an MIC [13] of 500 µM (≈ 240 µg/mL), an MIC [14, 29] of 32 µM (≈ 15.4 µg/mL) and an MIC [14, 30] of 62.5 µM (≈ 30 µg/mL). It also gave an MIC [14, 31] of 125 µM (≈ 60 µg/mL).
In the case of `O=[N+]([O-])c1ccc(O)c(C=Nc2ccc(S(=O)(=O)Nc3ncccn3)cc2)c1` [Compound 2f, 4-[(2-Hydroxy-5-nitrobenzylidene)amino]-N-(pyrimidin-2-yl)benzenesulfonamide], the MIC [1] is reported as greater than 500 µM, the MIC [2] is reported as 250 µM (≈ 99.8 µg/mL) and the MIC [3, 15] is reported as 500 µM (≈ 200 µg/mL). For the same compound, the MIC [4, 32] was 62.5 µM (≈ 25 µg/mL), the MIC [4, 33] was 62.5 µM (≈ 25 µg/mL) and the MIC ([4]; Trichophyton interdigitale, 445, incubation time not given, read-out: MIC for T. interdigitale) was 62.5 µM (≈ 25 µg/mL). For the same compound, the “MIC KP-E 24 h” value [5] was 500 µM (≈ 200 µg/mL), the “MIC KP-E 48 h” value [5] was 500 µM (≈ 200 µg/mL) and the MIC (Candida krusei E28; [16]) was greater than 500 µM. The MIC [6] was 500 µM (≈ 200 µg/mL), the MIC [7] was 250 µM (≈ 99.8 µg/mL) and the “MIC KP 24 h” value [8] was greater than 500 µM. The “MIC KP 48 h” value [8] was greater than 500 µM, the MIC (M. kansasii 6509/96; [17]) was 125 µM (≈ 49.9 µg/mL) and the MIC (M. kansasii 6509/96; [18]) was 250 µM (≈ 99.8 µg/mL). The MIC (M. kansasii 6509/96; [19]) was 250 µM (≈ 99.8 µg/mL), the MIC ([9]; ATCC44859, 48 h incubation, read-out: MIC CA 48 h) was 500 µM (≈ 200 µg/mL) and the MIC [10, 22] was 250 µM (≈ 99.8 µg/mL). The MIC [10, 23] was 250 µM (≈ 99.8 µg/mL), the MIC [11, 24] was 500 µM (≈ 200 µg/mL) and the MIC [11, 25] was 1000 µM (≈ 399 µg/mL). For the same compound, the MIC (Candida tropicalis 156; [26]) was greater than 500 µM, the MIC (Candida glabrata 20/I; 48 h incubation, read-out: MIC CG 48 h) was 250 µM (≈ 99.8 µg/mL) and the MIC [12] was 500 µM (≈ 200 µg/mL). The MIC (Trichosporon asahii 1188; Trichosporon asahii, 1188, 48 h incubation, read-out: MIC TA 48 h) was greater than 500 µM, the MIC [13] was 500 µM (≈ 200 µg/mL) and the MIC [14, 29] was 125 µM (≈ 49.9 µg/mL). The MIC [14, 30] was 250 µM (≈ 99.8 µg/mL) and the MIC [14, 31] was 500 µM (≈ 200 µg/mL).
